# Columns and labels:
# Type in all cases: in vivo
# Conditions in all cases: Glyphosate 0.375 lb/acre; AMS 17 lb/100 gal, NIS, AQ 284 or AQ 268 […] v/v, INTERLOCK 4 fl oz/acre
# Corn = experiment: Greenhouse study for weed control, corn
# Procedure: (§1) A greenhouse study was conducted to test the efficacy of the AQ 284 combination water conditioning adjuvant and drift reduction composition compared to the commercial standard (INTERLOCK). Greenhouse research was conducted with individual plants growing in 3×3×3 inch pots. Greenhouse treatments were applied with a track sprayer using an 8002 E single nozzle applying 20 gpa.
# Sunflower = experiment: Greenhouse study for weed control, sunflower
# Procedure: as §1
# Wheat = experiment: Greenhouse study for weed control, wheat
# Procedure: as §1
# Corn, Sunflower, Wheat = experiment: Greenhouse study for weed control, average of species
# Procedure: as §1
structure (smiles),measurement,setting,value
"O=C(O)CNCP(=O)(O)O [Glyphosate, N-(phosphonomethyl)glycine]",Corn % Control 18 Days After Application,Corn,10.0%
same,Sunflower % Control 18 Days After Application,Sunflower,15.0%
same,Wheat % Control 18 Days After Application,Wheat,15.0%
same,Average % Control 18 Days After Application,"Corn, Sunflower, Wheat",13.3%

# From US8809234B1, “Drift reduction compositions for agricultural use” (AgQuam LLC, priority 2011, dated 2014)
